In patent US8481595B2, “Compounds for the treatment of metabolic disorders” (Wellstat Therapeutics Corporation, priority 2008, dated 2013):

Test system: db/db mice
Test: Antidiabetic effects in db/db mice (serum chemistry after 2 weeks of daily oral dosing)
Type: in vivo
Excerpt: Db/db mice have a defect in leptin signaling, leading to hyperphagia, obesity and diabetes. Moreover, unlike ob/ob mice on a C57BL/6J background, db/db mice on a C57BLKS background undergo failure of their insulin-producing pancreatic islet cells, resulting in progression from hyperinsulinemia (associated with peripheral insulin resistance) to hypoinsulinemic diabetes.
Male obese (db/db homozygote) C57BL/Ksola mice approximately 8 weeks of age, were obtained from Jackson Labs (Bar Harbor, Me.) and randomly assigned into groups of 5-7 animals such that the body weights (40-45 g) and serum glucose levels (≧300 mg/dl in fed state) were similar between groups; male lean (db/+heterozygote) mice served as cohort controls. A minimum of 7 days was allowed for adaptation after arrival. All animals were maintained under controlled temperature (23° C.), relative humidity (50±5%) and light (7:0-19:00), and allowed free access to standard chow (Formulab Diet 5008, Quality Lab Products, Elkridge, Md.) and water.
Mice received daily oral doses of vehicle or Compound DP (100 mg/kg/day) for 2 weeks. At the end of the treatment period 100 μl of venous blood was withdrawn in a heparinized capillary tube from the retro-orbital sinus for serum chemistry analysis.

[1] = db/db mice, after 2 weeks of daily oral dosing, 100 mg/kg/day

Cc1cccc(C)c1C(=O)Oc1cccc(C(=O)CCC(=O)O)c1 [Compound DP, 4-(3-(2,6-Dimethylbenzoyloxy)phenyl)-4-oxobutanoic acid]
reduction in serum glucose (in words) [1]: significant reduction
reduction in serum triglycerides (in words) [1]: significant reduction
Triglycerides (serum) (male db/db C57BL/Ksola mice, 100 mg/kg/day oral, 2 weeks, vehicle 388.0 ± 50.7, lean 96.4 ± 6.4, *p < 0.05 vs vehicle-control): 140.8 ± 20.6* mg/dL
Glucose (serum) (male db/db C57BL/Ksola mice, 100 mg/kg/day oral, 2 weeks, vehicle 752.9 ± 46.0, lean 212.6 ± 15.3, *p < 0.05 vs vehicle-control): 264.3 ± 96.8* mg/dL
